Source: patent USRE48842E1, “Pyrimido-pyrrolo-oxazine-dione compound inhibitors of the cystic fibrosis transmembrane conductance regulator protein and uses therefor” (The Regents of the University of California, priority 2011, dated 2021)
Where “and” joins values, the source holds several entries; their conditions need not be identical. Equal entries are not always repeated.

Tests used:
[1] = molecular target: T1, human wildtype CFTR (Homo sapiens, UniProt P13569); assay: Short-circuit current analysis of CFTR inhibition in CFTR-expressing FRT cells; type: cell-based; design: expressed in transfected cells; host or cells: Fischer rat thyroid (FRT) epithelial cells on Snapwell inserts; settings: for inhibition of short-circuit current: 100 nM
T1 sequence (P13569 whole entry): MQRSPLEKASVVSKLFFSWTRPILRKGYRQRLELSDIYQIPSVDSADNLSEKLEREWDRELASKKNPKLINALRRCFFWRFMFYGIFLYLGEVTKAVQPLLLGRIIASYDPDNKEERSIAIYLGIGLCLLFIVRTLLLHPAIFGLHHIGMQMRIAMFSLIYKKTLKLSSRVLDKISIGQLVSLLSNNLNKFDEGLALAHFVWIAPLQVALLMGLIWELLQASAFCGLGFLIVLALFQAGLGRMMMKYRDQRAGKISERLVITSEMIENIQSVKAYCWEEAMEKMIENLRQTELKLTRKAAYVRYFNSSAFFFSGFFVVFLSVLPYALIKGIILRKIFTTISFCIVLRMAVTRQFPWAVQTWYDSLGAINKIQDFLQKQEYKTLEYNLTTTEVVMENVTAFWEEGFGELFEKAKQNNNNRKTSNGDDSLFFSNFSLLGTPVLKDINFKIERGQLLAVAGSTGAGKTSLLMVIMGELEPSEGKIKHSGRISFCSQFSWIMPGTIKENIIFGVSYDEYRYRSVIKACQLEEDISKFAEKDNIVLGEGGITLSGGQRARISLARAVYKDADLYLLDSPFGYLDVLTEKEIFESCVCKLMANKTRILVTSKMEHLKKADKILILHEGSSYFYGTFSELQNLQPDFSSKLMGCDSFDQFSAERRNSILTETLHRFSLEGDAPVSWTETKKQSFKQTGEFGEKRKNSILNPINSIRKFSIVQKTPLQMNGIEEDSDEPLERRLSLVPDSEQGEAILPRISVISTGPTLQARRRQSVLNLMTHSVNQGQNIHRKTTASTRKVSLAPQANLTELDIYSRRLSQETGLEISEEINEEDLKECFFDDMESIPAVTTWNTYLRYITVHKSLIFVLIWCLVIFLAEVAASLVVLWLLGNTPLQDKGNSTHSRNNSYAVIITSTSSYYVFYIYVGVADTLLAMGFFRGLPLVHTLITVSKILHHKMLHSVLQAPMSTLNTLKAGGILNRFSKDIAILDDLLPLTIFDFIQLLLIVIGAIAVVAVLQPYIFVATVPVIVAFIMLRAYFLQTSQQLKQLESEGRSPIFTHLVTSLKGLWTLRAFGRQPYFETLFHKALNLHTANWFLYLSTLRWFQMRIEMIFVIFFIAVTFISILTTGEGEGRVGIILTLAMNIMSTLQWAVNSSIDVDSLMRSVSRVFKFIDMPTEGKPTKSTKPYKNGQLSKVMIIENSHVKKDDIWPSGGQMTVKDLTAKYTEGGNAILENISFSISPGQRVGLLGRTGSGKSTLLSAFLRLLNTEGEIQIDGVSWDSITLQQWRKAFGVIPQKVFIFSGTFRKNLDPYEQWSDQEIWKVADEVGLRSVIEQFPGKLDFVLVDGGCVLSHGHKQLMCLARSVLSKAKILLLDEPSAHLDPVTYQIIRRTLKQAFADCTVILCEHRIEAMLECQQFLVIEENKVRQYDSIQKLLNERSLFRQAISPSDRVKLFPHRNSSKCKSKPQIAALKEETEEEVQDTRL
Protocol: Short-Circuit Current—Snapwell inserts containing CFTR-expressing FRT cells were mounted in an Ussing chamber. The hemichambers contained 5 mL of buffer containing 75 mM NaCl and 75 mM Na gluconate (apical) and 150 mM NaCl (basolateral) (pH 7.3), and the basolateral membrane was permeabilized with 250 μg/mL amphotericin B, as described (see, e.g., Sonawane et al., FASEB J 2006, supra). Short-circuit current was recorded continuously using a DVC-1000 voltage clamp (World Precision Instruments) using Ag/AgCl electrodes and 3 M KCl agar bridges.
Current was measured in CFTR-expressing FRT cells in which the basolateral membrane was permeabilized and in the presence of a transepithelial chloride concentration gradient, so that current is a quantitative linear measure of CFTR function. CFTR was activated by forskolin, followed by serial additions of increasing concentrations of test compounds.
CFTR inhibition potency was measured by short-circuit current analysis in FRT epithelial cells expressing human CFTR in presence of a transepithelial chloride gradient and in which the basolateral membrane was permeabilized with amphotericin B. Under these conditions short-circuit current is proportional to CFTR chloride conductance.

[2] = In vitro metabolism in hepatic microsomes (LC/MS); type: in vitro ADME, rat; settings: in the presence of NADPH
Protocol: (§1) In Vitro Metabolism in Hepatic Microsomes—A compound of structure (I) was incubated for specified times at 37° C. with rat liver microsomes (e.g., 1 mg protein/ml; Sigma-Aldrich, St. Louis, Mo.) in potassium phosphate buffer (100 mM) containing NADPH (0 or 1 mM). The mixture was then chilled on ice, and 0.5 ml of ice-cold ethyl acetate was added. Samples were centrifuged for 15 min at 3,000 rpm, and the supernatant was evaporated to dryness under nitrogen. The residue was dissolved in 150 μl mobile phase (acetonitrile:water 3:1, containing 0.1% formic acid) for LC/MS analysis. Reverse-phase HPLC separations were carried out using a Waters C18 column (2.1×100 mm, […]) equipped with a solvent delivery system (Waters model 2690, Milford, Mass.). The solvent system consisted of a linear gradient from 5 to 95% acetonitrile run over 16 min (0.2 mL/min flow rate). Mass spectra were acquired on an Alliance HT 2790+ZQ mass spectrometer using negative ion detection.
as §1, with “Liquid Chromatography/Mass Spectrometry—Compounds (each at 5 μM) were” for “In Vitro Metabolism in Hepatic Microsomes—A compound of structure (I) was”, “(1” for “(e.g., 1”, “150” for “150 μl”, “detection, scanning from 150 to 1500 Da. The electrospray ion source parameters were as follows: capillary voltage 3.5 kV (positive ion mode), cone voltage 37 V, source temperature 120° C., desolvation temperature 250° C., cone gas flow 25 L/h, and dessolvation gas flow 350 L/h.” for “detection.”
PPQ-102 is a small-molecule inhibitor of CFTR chloride conductance with efficacy in preventing and reversing cyst formation in an organ culture model of PKD (see, e.g., Tradtrantip et al., J. Med. Chem. 2009, supra; Int'l Patent Appl. Publication No. WO 2011/019737). Preliminary analysis of the metabolic stability and aqueous solubility of PPQ-102, indicated poorer metabolic stability and lower water solubility (˜2 μM in albumin-free saline) than desired for optimal drugability. In vitro metabolic stability was determined by compound incubation with hepatic microsomes at 37° C. for specified times in the absence vs. presence of NADPH, following by LC/MS analysis. Shown in FIG. 6A is PPQ-102 disappearance in hepatic microsomes in the presence of NADPH, with ˜60% disappearance in 30 min.

[3] = molecular target: T1, human wildtype CFTR; assay: Fluorescence plate reader assay of CFTR inhibition (iodide influx); type: cell-based; design: expressed in transfected cells; host or cells: Fischer rat thyroid (FRT) cells; settings: Determined by micro-plate reader assay; FRT cells co-expressing human wild type CFTR and YFP-H148Q
Protocol: Cell Culture and Plate Reader Assay of CFTR Inhibition—Fischer rat thyroid (FRT) cells co-expressing human wild type CFTR and the halide indicator YFP-H148Q were cultured in 96-well black-walled microplates (Corning Costar) at a density of 20,000 cells per well in Coon's modified F12 medium containing 10% fetal bovine serum, 2 mM L-glutamine, 100 U/mL penicillin and 100 μg/mL streptomycin. CFTR chloride conductance was assayed at 48 h after plating on a FluoStar fluorescence plate reader (BMG Lab Technologies) as described (see, e.g., Ma et al., J Clin Invest. 2002, supra). Each well was washed 3 times with PBS, leaving 60 μL PBS. Test compounds were added and incubated with the cells for 45 min. Then, 5 μL of a CFTR-activating cocktail (10 μM forskolin, 100 μM IBMX, 20 μM apigenin in PBS) was added. After 15 min, each well was assayed for iodide influx by recording fluorescence continuously (200 ms per point) for 2 s (baseline) and then for 10 s after rapid addition of 160 μL of isosmolar PBS in which 137 mM chloride was replaced by iodide. The initial rate of iodide influx was computed from fluorescence data by non-linear regression.
Initial testing of the compounds for the capability to inhibit CFTR was performed using a plate-reader assay in which iodide influx was measured in FRT cells co-expressing human wild type CFTR and the iodide-sensing yellow fluorescent protein YFP-H148Q/1152L. […] Table B below provides IC50 values for PPQ and BPO compounds.
The relative IC50 values obtained from the plate reader assay are useful for comparisons. Absolute IC50 values obtained from the plate-reader assay are approximate, generally underestimating compound potency because of assay non-linearities, pH-dependent YFP fluorescence, the use of iodide instead of chloride, and compound dilution at the start of the assay (see, e.g., Galietta et al., Am. J. Physiol. Cell Physiol. 281:C1734-42 (2001)).

[4] = short-circuit current, FRT cells expressing human CFTR, forskolin-stimulated, read-out: IC50 for inhibition of CFTR chloride conductance
[5] = Determined by short-circuit current assay, read-out: IC50 (μM)^B

| SMILES | inhibition of short-circuit current [1] | IC50 [1, 4] | metabolic stability in hepatic microsomes (in words) [2] | inhibition of CFTR chloride conductance (in words) ([1]; short-circuit current) | IC50 [1, 5] | IC50 [3] |
| --- | --- | --- | --- | --- | --- | --- |
| Cn1c(=O)c2c(-c3ccccc3)n3c(c2n(C)c1=O)[C@H](c1ccc(Br)o1)Oc1ccc(C(=O)O)cc1-3 (single isomer, unassigned) [(R)-BPO-27, 6R-(5-Bromofuran-2-yl)-7,9-dimethyl-8,10-dioxo-11-phenyl-7,8,9,10-tetrahydro-6H-benzo[b]pyrimido [4′,5′:3,4]pyrrolo [1,2-d][1,4]oxazine-2-carboxylic acid] | completed inhibited current | 0.004 µM and ~0.004 µM | little metabolism |  |  |  |
| Cn1c(=O)c2c(-c3ccccc3)n3c(c2n(C)c1=O)[C@@H](c1ccc(Br)o1)Oc1ccc(C(=O)O)cc1-3 (single isomer, unassigned) [(S)-BPO-27, 6S-(5-Bromofuran-2-yl)-7,9-dimethyl-8,10-dioxo-11-phenyl-7,8,9,10-tetrahydro-6H-benzo[b]pyrimido [4′,5′:3,4]pyrrolo [1,2-d][1,4]oxazine-2-carboxylic acid] | no significant inhibition | ~0.004 µM | little metabolism | inactive |  |  |
| Cn1c(=O)c2c(-c3ccccc3)n3c(c2n(C)c1=O)C(c1ccc(Br)o1)Oc1ccccc1-3 (stereo not shown) [BPO-16, 6-(5-Bromofuran-2-yl)-7,9-dimethyl-11-phenyl-6H-benzo[b]pyrimido[4′,5′-3,4]pyrrolo[1,2-d]oxazine-8,10-(7H,9H)-dione] |  |  | better stability than PPQ-102 |  | 0.09 µM | 200 nM |
| Cn1c(=O)c2c(-c3ccccc3)n3c(c2n(C)c1=O)C(c1ccc(Br)o1)Oc1ccc([N+](=O)[O-])cc1-3 (stereo not shown) [BPO-21, 6-(5-bromofuran-2-yl)-7,9-Dimethyl-2-nitro-11-phenyl-6H-benzo[b]pyrimido[4′,5′-3,4]pyrrolo[1,2-d]oxazine-8,10-(7H,9H)-dione] |  |  | excellent metabolic stability | substantially greater CFTR inhibition potency | 0.025 µM | 120 nM |
| Cn1c(=O)c2c(-c3ccccc3)n3c(c2n(C)c1=O)C(c1ccc(Br)o1)Nc1ccccc1-3 (stereo not shown) [PPQ-10, 6-(5-Bromofuran-2-yl)-7,9-dimethyl-11-phenyl-5,6-dihydropyrimido[4′,5′-3,4]pyrrolo[1,2-a]quinoxaline-8,10-(7H,9H)-dione] |  |  | substantially more stable than PPQ-102 |  | 0.05 µM | 90 nM |
| Cn1c(=O)c2c(-c3ccccc3)n3c(c2n(C)c1=O)C(c1ccc(I)o1)Nc1ccccc1-3 (stereo not shown) [PPQ-11, 7,9-Dimethyl-6-(5-iodofuran-2-yl)-11-phenyl-5,6-dihydropyrimido[4′,5′-3,4]pyrrolo[1,2-a]quinoxaline-8,10-(7H,9H)-dione] |  |  |  |  | 0.1 µM | 170 nM |
